Earlier results, collected in patent US10675240B2 (priority 2014, dated 2020).

Conditions: background statement

CC1=CC[C@H]2C[C@@H]1C2(C)C [α-Pinene, (1S,5S)-2,6,6-Trimethylbicyclo[3.1.1]hept-2-ene]
human pulmonary uptake: 60%
